Measured values published in ChEMBL document CHEMBL1201862, “PubChem BioAssay data set” (2004).
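A five-concentration, 48-hour dose response in 96-well plates underlies each endpoint, interpolated linearly between surrounding concentrations. Here, GI50 denotes the concentration required for 50% inhibition of growth.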 Activity calls are given as the source filed them. Rule as the data show it: active = GI50 up to about 1.1 µM and inactive = higher.

Legend:
Assay in all cases: NCI anticancer screen, dose series, 48 h
[1] = test system: HOP-62
[2] = test system: NCI/ADR-RES
[3] = test system: UACC-257
[4] = test system: SK-MEL-2
[5] = test system: RXF 393
[6] = test system: SK-OV-3
[7] = test system: SN12C
[8] = test system: RPMI-8226
[9] = test system: K562
[10] = test system: HCC 2998
[11] = test system: MDA-MB-435
[12] = test system: SK-MEL-28
[13] = test system: UO-31
[14] = test system: EKVX
[15] = test system: HCT-15
[16] = test system: LOX IMVI
[17] = test system: Hs-578T
[18] = test system: 786-0
[19] = test system: SW-620
[20] = test system: M14
[21] = test system: IGROV-1
[22] = test system: CAKI-1
[23] = test system: SNB-19
[24] = test system: COLO 205
[25] = test system: HT-29
[26] = test system: OVCAR-8
[27] = test system: HL-60
[28] = test system: SK-MEL-5
[29] = test system: SF-539
[30] = test system: TK-10
[31] = test system: MCF7
[32] = test system: MDA-MB-231
[33] = test system: U-251
[34] = test system: CCRF-CEM
[35] = test system: NCI-H23
[36] = test system: SF-268
[37] = test system: HCT-116
[38] = test system: SF-295
[39] = test system: BT-549
[40] = test system: A549
[41] = test system: T47D
[42] = test system: NCI-H522
[43] = test system: PC-3
[44] = test system: KM12
[45] = test system: A498
[46] = test system: NCI-H460
[47] = test system: ACHN
[48] = test system: OVCAR-5
[49] = test system: OVCAR-3
[50] = test system: DU-145
[51] = test system: UACC-62
[52] = test system: NCI-H226
[53] = test system: Malme-3M
[54] = test system: OVCAR-4
[55] = test system: HOP-92
[56] = test system: SR
[57] = test system: SNB-75

With `Brc1cccc[n+]1-c1ccc2cc(-[n+]3ccccc3Br)ccc2c1` the GI50 [1] was 27.6 µM (inactive), the GI50 [2] was 53.3 µM (inactive) and the GI50 [3] was > 100 µM (inactive). The GI50 [4] was 32.2 µM (inactive), the GI50 [5] was 32 µM (inactive) and the GI50 [6] was 3.01 µM (inactive). For the same compound, the GI50 [7] was 42.4 µM (inactive), the GI50 [8] was 19.5 µM (inactive) and the GI50 [9] was 59.2 µM (inactive). The GI50 [10] was 46.1 µM (inactive), the GI50 [11] was 80.9 µM (inactive) and the GI50 [12] was > 100 µM (inactive). The GI50 [13] was 18.1 µM (inactive), the GI50 [14] was 47.6 µM (inactive) and the GI50 [15] was 32.5 µM. The GI50 [16] was 16.3 µM (inactive), the GI50 [17] was 56.9 µM (inactive) and the GI50 [18] was 26.4 µM (inactive). The GI50 [19] was 44.5 µM (inactive), the GI50 [20] was > 100 µM (inactive) and the GI50 [21] was 11.4 µM (inactive). The GI50 [22] was > 100 µM (inactive), the GI50 [23] was 72.8 µM (inactive) and the GI50 [24] was 31 µM (inactive). The GI50 [25] was 29.1 µM (inactive), the GI50 [26] was 43 µM (inactive) and the GI50 [27] was 28.6 µM (inactive). The GI50 [28] was 77.3 µM (inactive), the GI50 [29] was 19.3 µM (inactive) and the GI50 [30] was 18.3 µM (inactive). For the same compound, the GI50 [31] was 35.7 µM (inactive), the GI50 [32] was 24.2 µM (inactive) and the GI50 [33] was 15.6 µM (inactive). For the same compound, the GI50 [34] was 34.1 µM (inactive), the GI50 [35] was > 100 µM (inactive) and the GI50 [36] was 31.8 µM (inactive). The GI50 [37] was 39.6 µM (inactive), the GI50 [38] was 53.3 µM (inactive) and the GI50 [39] was 97.9 µM (inactive). For the same compound, the GI50 [40] was 38.9 µM (inactive), the GI50 [41] was 22.3 µM (inactive) and the GI50 [42] was 40.1 µM (inactive). The GI50 [43] was > 100 µM (inactive), the GI50 [44] was 20.8 µM (inactive) and the GI50 [45] was > 100 µM (inactive). For the same compound, the GI50 [46] was 30.2 µM (inactive), the GI50 [47] was 17.7 µM (inactive) and the GI50 [48] was 39.8 µM (inactive). For the same compound, the GI50 [49] was 19.8 µM (inactive), the GI50 [50] was 14.8 µM (inactive) and the GI50 [51] was 45.1 µM (inactive). For the same compound, the GI50 [52] was > 100 µM (inactive) and the GI50 [53] was 23.1 µM (inactive).
In the case of `CC(C)(C)c1ccc2c(c1)CNCCNCCNCc1cc(C(C)(C)C)ccc1OCC1(CO2)COc2ccc(C(C)(C)C)cc2CNCCNCCNCc2cc(C(C)(C)C)ccc2OC1`, the GI50 [1] is reported as 1.87 µM (inactive), the GI50 [2] is reported as 2.17 µM (inactive) and the GI50 [3] is reported as 1.69 µM (inactive). The GI50 [4] was 0.914 µM (active), the GI50 [5] was 2.05 µM (inactive) and the GI50 [6] was 1.53 µM (inactive). For the same compound, the GI50 [10] was 0.339 µM (active), the GI50 [12] was 10 µM (inactive) and the GI50 [13] was 1.72 µM (inactive). For the same compound, the GI50 [14] was 0.611 µM (active), the GI50 [15] was 1.51 µM and the GI50 [17] was 1.44 µM (inactive). The GI50 [19] was 0.303 µM (active), the GI50 [20] was 0.526 µM (active) and the GI50 [21] was 0.418 µM (active). For the same compound, the GI50 [22] was 1.72 µM (inactive), the GI50 [26] was 1.76 µM (inactive) and the GI50 [29] was 0.375 µM (active). For the same compound, the GI50 [30] was 1.55 µM (inactive), the GI50 [31] was 0.183 µM (active) and the GI50 [32] was 1.41 µM (inactive). The GI50 [35] was 1.52 µM (inactive), the GI50 [36] was 1.37 µM (inactive) and the GI50 [39] was 1.5 µM (inactive). For the same compound, the GI50 [42] was 0.186 µM (active), the GI50 [43] was 0.382 µM (active) and the GI50 [44] was 0.243 µM (active). The GI50 [46] was 0.24 µM (active), the GI50 [54] was 1.58 µM (inactive) and the GI50 [47] was 1.51 µM (inactive). For the same compound, the GI50 [48] was 1.72 µM (inactive), the GI50 [49] was 1.33 µM (inactive) and the GI50 [50] was 1.49 µM (inactive). For the same compound, the GI50 [51] was 1.68 µM (inactive), the GI50 [52] was 0.718 µM (active) and the GI50 [53] was 1.94 µM (inactive).
`O=S(=O)(c1ccccc1)N1CN2CN(C1)CN(S(=O)(=O)c1ccccc1)C2` was tested, and the GI50 [1] was > 100 µM (inactive), the GI50 [2] was > 100 µM (inactive) and the GI50 [3] was > 100 µM (inactive). The GI50 [4] was > 100 µM (inactive), the GI50 [5] was 55.7 µM (inactive) and the GI50 [6] was > 100 µM (inactive). For the same compound, the GI50 [7] was > 100 µM (inactive), the GI50 [8] was > 100 µM (inactive) and the GI50 [9] was > 100 µM (inactive). The GI50 [10] was > 100 µM (inactive), the GI50 [11] was > 100 µM (inactive) and the GI50 [12] was > 100 µM (inactive). For the same compound, the GI50 [13] was > 100 µM (inactive), the GI50 [14] was > 100 µM (inactive) and the GI50 [15] was > 100 µM. For the same compound, the GI50 [16] was > 100 µM (inactive), the GI50 [55] was > 100 µM (inactive) and the GI50 [18] was > 100 µM (inactive). For the same compound, the GI50 [19] was > 100 µM (inactive), the GI50 [20] was > 100 µM (inactive) and the GI50 [21] was > 100 µM (inactive). For the same compound, the GI50 [22] was > 100 µM (inactive), the GI50 [23] was > 100 µM (inactive) and the GI50 [24] was > 100 µM (inactive). The GI50 [25] was > 100 µM (inactive), the GI50 [26] was > 100 µM (inactive) and the GI50 [27] was 26.6 µM (inactive). The GI50 [28] was > 100 µM (inactive), the GI50 [29] was > 100 µM (inactive) and the GI50 [30] was > 100 µM (inactive). For the same compound, the GI50 [31] was > 100 µM (inactive), the GI50 [32] was > 100 µM (inactive) and the GI50 [33] was 97.3 µM (inactive). The GI50 [56] was > 100 µM (inactive), the GI50 [35] was > 100 µM (inactive) and the GI50 [37] was > 100 µM (inactive). The GI50 [38] was > 100 µM (inactive), the GI50 [39] was > 100 µM (inactive) and the GI50 [40] was > 100 µM (inactive). For the same compound, the GI50 [43] was > 100 µM (inactive), the GI50 [44] was > 100 µM (inactive) and the GI50 [45] was > 100 µM (inactive). The GI50 [57] was 22.7 µM (inactive), the GI50 [46] was > 100 µM (inactive) and the GI50 [54] was > 100 µM (inactive). For the same compound, the GI50 [47] was 79.8 µM (inactive), the GI50 [48] was > 100 µM (inactive) and the GI50 [49] was > 100 µM (inactive). For the same compound, the GI50 [50] was > 100 µM (inactive), the GI50 [51] was > 100 µM (inactive) and the GI50 [52] was > 100 µM (inactive).
